Laboratory results as given in the supplement of paper PMC10307832.

How the values were obtained:
Assay in all cases: relative viability (nuclei count vs DMSO), 5 days (fraction); higher = more cells survive
Trametinib + Pictilisib = compound: CC(=O)Nc1cccc(-n2c(=O)n(C3CC3)c(=O)c3c(Nc4ccc(I)cc4F)n(C)c(=O)c(C)c32)c1 [Trametinib] + CS(=O)(=O)N1CCN(Cc2cc3nc(-c4cccc5[nH]ncc45)nc(N4CCOCC4)c3s2)CC1 [Pictilisib] (partner 1 µM)
How it was run: (§1)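 Lung cancer cell lines, seeded in 1536-well plates, were treated the following day by pin tool with a single drug or with five library-drug doses (not always all listed) in √10 steps on top of a fixed anchor-drug dose. Cells were fixed and nuclei stained in one step after 5 days, and nuclei were counted. Relative viability is the nuclei count for treated wells divided by that for vehicle wells, reported as medians of duplicate plates.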

[1] = compound: CN1C=C(C2=CC=CC=C21)/C=C\3/C4=C(C=CC=N4)NC3=O + CC1(C)CCC(c2ccc(Cl)cc2)=C(CN2CCN(c3ccc(C(=O)NS(=O)(=O)c4ccc(N[C@H](CCN5CCOCC5)CSc5ccccc5)c(S(=O)(=O)C(F)(F)F)c4)cc3)CC2)C1 [Navitoclax] (partner 0.5 µM)
How it was run: as §1

[2] = compound: CN1C=C(C2=CC=CC=C21)/C=C\3/C4=C(C=CC=N4)NC3=O + C[C@@H](Oc1cc(-c2cnn(C3CCNCC3)c2)cnc1N)c1c(Cl)ccc(F)c1Cl [Crizotinib] (partner 1 µM)
How it was run: as §1

[3] = compound: CN1C=C(C2=CC=CC=C21)/C=C\3/C4=C(C=CC=N4)NC3=O + NC(=O)Nc1cc(-c2cccc(F)c2)sc1C(=O)N[C@H]1CCCNC1 [AZD7762] (partner 0.2 µM)
How it was run: as §1

Cell Line | relative viability (Trametinib + Pictilisib; first compound 0.0025 µM) | relative viability (Trametinib + Pictilisib; first compound 0.007906 µM) | relative viability (Trametinib + Pictilisib; first compound 0.025 µM) | relative viability (Trametinib + Pictilisib; first compound 0.07906 µM) | relative viability (Trametinib + Pictilisib; first compound 0.25 µM) | relative viability ([1]; first compound 0.02 µM) | relative viability ([1]; first compound 0.06325 µM) | relative viability ([1]; first compound 0.2 µM) | relative viability ([1]; first compound 0.6325 µM) | relative viability ([1]; first compound 2 µM) | relative viability ([2]; first compound 0.02 µM) | relative viability ([2]; first compound 0.06325 µM) | relative viability ([2]; first compound 0.2 µM) | relative viability ([2]; first compound 0.6325 µM) | relative viability ([2]; first compound 2 µM) | relative viability ([3]; first compound 0.02 µM) | relative viability ([3]; first compound 0.06325 µM) | relative viability ([3]; first compound 0.2 µM) | relative viability ([3]; first compound 0.6325 µM) | relative viability ([3]; first compound 2 µM)
NCI-H2087 | 0.846 | 0.344 | 0.26 | 0.237 | 0.382 | 1.01 | 0.843 | 1.19 | 1.03 | 1.13 | 0.96 | 0.701 | 1.1 | 0.889 | 0.868 | 1.41 | 1.33 | 1.31 | 1.22 | 1.37
NCI-H2126 | 0.456 | 0.413 | 0.362 | 0.372 | 0.383 | 0.789 | 0.824 | 0.833 | 0.859 | 0.8 | 0.994 | 1 | 1.06 | 1.03 | 1.02 | 1.01 | 0.899 | 0.864 | 1 | 1
NCI-H2170 | 0.281 | 0.276 | – | 0.238 | 0.249 | – | 0.604 | 0.527 | 0.543 | 0.541 | – | 1.13 | 1.35 | 1.16 | 1.15 | 0.86 | 0.811 | 0.581 | 0.825 | 0.761
NCI-H2347 | 0.452 | 0.301 | 0.221 | 0.229 | 0.272 | 0.826 | 0.859 | 0.743 | 0.764 | 0.834 | 0.588 | 0.802 | 0.607 | 0.694 | 0.674 | 0.778 | 0.728 | 0.56 | 0.79 | 0.83
NCI-H2405 | 0.298 | 0.251 | 0.257 | 0.204 | 0.236 | 0.891 | 0.803 | 0.65 | 1.1 | 0.732 | 0.769 | 0.832 | – | 0.829 | 0.821 | 0.857 | 0.731 | 0.552 | 0.835 | 0.795
NCI-H3122 | 0.287 | 0.24 | 0.197 | 0.189 | 0.175 | 0.907 | 1.01 | 0.989 | 1.11 | 1.06 | 0.226 | 0.231 | 0.275 | 0.29 | 0.28 | 0.85 | 0.953 | 0.845 | 1.04 | 1.07
PC-3 [JPC-3] | 0.765 | 0.474 | 0.484 | 0.438 | 0.44 | 0.782 | 0.743 | 0.788 | 0.812 | 0.683 | 0.878 | 0.949 | 0.954 | 0.96 | 0.966 | 0.811 | 0.801 | 0.752 | 0.819 | 0.701
PC-14 | 0.667 | 0.546 | 0.24 | 0.141 | 0.107 | 1.05 | 0.985 | 1.14 | 0.971 | 0.989 | 0.91 | 0.791 | 1 | 0.856 | 0.958 | 0.254 | 0.307 | 0.19 | 0.306 | 0.264
RERF-LC-KJ | 0.417 | 0.449 | 0.503 | 0.494 | 0.458 | 1.03 | 0.937 | 0.707 | 0.691 | 0.51 | 0.831 | 0.829 | 0.787 | 0.77 | 0.718 | 1.03 | 0.96 | 0.805 | 1.01 | 0.928
